From patent US10550105B2 (Ribon Therapeutics Inc., priority 2018, dated 2020) come the findings set out here.

The IC50 is the midpoint of a concentration-inhibition curve.

Sequence of PARP7 (Q7Z3E1 whole entry): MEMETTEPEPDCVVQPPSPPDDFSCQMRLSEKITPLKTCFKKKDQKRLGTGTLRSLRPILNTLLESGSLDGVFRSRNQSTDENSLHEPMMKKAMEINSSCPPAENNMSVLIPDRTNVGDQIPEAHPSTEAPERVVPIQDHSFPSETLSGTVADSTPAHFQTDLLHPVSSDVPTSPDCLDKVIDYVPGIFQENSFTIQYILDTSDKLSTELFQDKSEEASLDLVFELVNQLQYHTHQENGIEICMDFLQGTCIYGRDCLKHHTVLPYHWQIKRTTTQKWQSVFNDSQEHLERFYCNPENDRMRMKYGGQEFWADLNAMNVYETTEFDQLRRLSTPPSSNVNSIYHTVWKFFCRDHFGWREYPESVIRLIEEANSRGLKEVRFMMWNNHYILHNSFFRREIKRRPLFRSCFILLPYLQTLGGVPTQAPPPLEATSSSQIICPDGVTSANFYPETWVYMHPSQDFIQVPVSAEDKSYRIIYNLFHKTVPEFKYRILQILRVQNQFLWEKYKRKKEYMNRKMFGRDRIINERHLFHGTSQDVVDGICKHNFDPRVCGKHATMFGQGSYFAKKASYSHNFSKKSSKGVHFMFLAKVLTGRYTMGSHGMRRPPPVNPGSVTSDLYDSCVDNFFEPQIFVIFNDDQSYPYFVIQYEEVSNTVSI

In the assay the target is PARP7 (Homo sapiens (Human), UniProt Q7Z3E1). The experiment in a line: Enzymatic assay for inhibition of PARP7: TR-FRET displacement of biotinylated Probe A from the TIPARP active site. Format: binding. The following applies: Table A-1. A digest of the protocol:
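Percent inhibition derives from the ratio of 665 to 615 nm emission, which reports how much Probe A remains bound to TIPARP. Plates sat 30 min at 25° C before the time-resolved read (320 nm excitation).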
Background: Time-resolved FRET reads energy transfer from a long-lived donor to a nearby acceptor.
As to `C[C@@H](COC[C@@H]1CCCN1c1cn[nH]c(=O)c1C(F)(F)F)CC(=O)N1CCN(c2ccc(C#N)cn2)CC1` [Example 128A], the IC50 is less than 100 nM.

`C[C@H](COC[C@@H]1CCCN1c1cn[nH]c(=O)c1C(F)(F)F)CC(=O)N1CCN(c2ccc(C#N)cn2)CC1` [Example 128B] gave an IC50 of less than 100 nM.

As for `N#Cc1ccc(N2CCN(C(=O)N3CC[C@@H](OC[C@@H]4CCCN4c4cn[nH]c(=O)c4C(F)(F)F)C3)CC2)nc1` [Example 129A, 6-[4-[(3R)-3-[[(2S)-1-[6-oxo-5-(trifluoromethyl)-1,6-dihydropyridazin-4-yl]pyrrolidin-2-yl]methoxy]pyrrolidine-1-carbonyl]piperazin-1-yl]pyridine-3-carbonitrile], the IC50 lay in the range of 100 to 1000 nM.

For `N#Cc1ccc(N2CCN(C(=O)N3CC[C@H](OC[C@@H]4CCCN4c4cn[nH]c(=O)c4C(F)(F)F)C3)CC2)nc1` [Example 129B, 6-[4-[(3S)-3-[[(2S)-1-[6-oxo-5-(trifluoromethyl)-1,6-dihydropyridazin-4-yl]pyrrolidin-2-yl]methoxy]pyrrolidine-1-carbonyl]piperazin-1-yl]pyridine-3-carbonitrile], the half-inhibitory concentration (IC50) was less than 100 nM.

With `N#Cc1ccc(N2CCN(C(=O)CCOCC3CCCCN3c3cn[nH]c(=O)c3C(F)(F)F)CC2)nc1` (centres unmarked) [Example 130, 6-[4-[3-([1-[6-oxo-5-(trifluoromethyl)-1,6-dihydropyridazin-4-yl]piperidin-2-yl]methoxy)propanoyl]piperazin-1-yl]pyridine-3-carbonitrile], the IC50 was in the range of 100 to 1000 nM.

With `N#Cc1ccc(N2CCN(C(=O)CCOCC3CCCCN3c3cn[nH]c(=O)c3Br)CC2)nc1` (centres unmarked) [Example 131, 6-(4-(3-((1-(5-bromo-6-oxo-1,6-dihydropyridazin-4-yl)piperidin-2-yl)methoxy)propanoyl)piperazin-1-yl)nicotinonitrile], the IC50 lay within 100 to 1000 nM.

As for `N#Cc1ccc(N2CCN(C(=O)CCNC(=O)C[C@@H]3CCCN3c3cn[nH]c(=O)c3C(F)(F)F)CC2)nc1` [Example 132, N-[3-[4-(5-cyanopyridin-2-yl)piperazin-1-yl]-3-oxopropyl]-2-[(2S)-1-[6-oxo-5-(trifluoromethyl)-1,6-dihydropyridazin-4-yl]pyrrolidin-2-yl]acetamide], the half-maximal inhibitory concentration (IC50) was 100 to 1000 nM.

Compound `N#Cc1ccc(N2CCN(C(=O)CCOC[C@@H]3C[C@H](C(F)(F)F)CN3c3cn[nH]c(=O)c3C(F)(F)F)CC2)nc1` [Example 133, 6-[4-(3-[[(2S,4S)-1-[6-oxo-5-(trifluoromethyl)-1,6-dihydropyridazin-4-yl]-4-(trifluoromethyl)pyrrolidin-2-yl]methoxy]propanoyl)piperazin-1-yl]pyridine-3-carbonitrile] had a 50% inhibitory concentration (IC50) of less than 100 nM.

In turn, `N#Cc1ccc(N2CCN(CCC(=O)NC[C@@H]3CCCN3c3cn[nH]c(=O)c3C(F)(F)F)CC2)nc1` [Example 134, (S)-3-(4-(5-cyanopyridin-2-yl)piperazin-1-yl)-N-((1-(6-oxo-5-(trifluoromethyl)-1,6-dihydropyridazin-4-yl)pyrrolidin-2-yl)methyl)propanamide] gave a concentration for half-maximal inhibition (IC50) of no less than 1000 nM.

Take `N#Cc1ccc(N2CCN(C(=O)CCNC[C@@H]3CCCN3c3cn[nH]c(=O)c3C(F)(F)F)CC2)nc1` [Example 135, 6-[4-[3-([[(2S)-1-[6-oxo-5-(trifluoromethyl)-1,6-dihydropyridazin-4-yl]pyrrolidin-2-yl]methyl]amino)propanoyl]piperazin-1-yl]pyridine-3-carbonitrile]: the IC50 was less than 100 nM.

`CN(CCC(=O)N1CCN(c2ccc(C#N)cn2)CC1)C[C@@H]1CCCN1c1cn[nH]c(=O)c1C(F)(F)F` [Example 136, (S)-6-(4-(3-(methyl((1-(6-oxo-5-(trifluoromethyl)-1,6-dihydropyridazin-4-yl)pyrrolidin-2-yl)methyl)amino)propanoyl)piperazin-1-yl)nicotinonitrile] yielded an IC50 of less than 100 nM.

For `N#Cc1ccc(N2CCN(C(=O)CCOC[C@@H]3c4ncccc4CN3c3cn[nH]c(=O)c3C(F)(F)F)CC2)nc1` [Example 137A, 6-[4-(3-[[(7S)-6-[6-oxo-5-(trifluoromethyl)-1,6-dihydropyridazin-4-yl]-5H,6H,7H-pyrrolo[3,4-b]pyridin-7-yl]methoxy]propanoyl)piperazin-1-yl]pyridine-3-carbonitrile], the IC50 was less than 100 nM.

On to `N#Cc1ccc(N2CCN(C(=O)CCOC[C@H]3c4ncccc4CN3c3cn[nH]c(=O)c3C(F)(F)F)CC2)nc1` [Example 137B, 6-[4-(3-[[(7R)-6-[6-oxo-5-(trifluoromethyl)-1,6-dihydropyridazin-4-yl]-5H,6H,7H-pyrrolo[3,4-b]pyridin-7-yl]methoxy]propanoyl)piperazin-1-yl]pyridine-3-carbonitrile], for which the IC50 is less than 100 nM.

`CN(C[C@@H]1CCCN1c1cn[nH]c(=O)c1C(F)(F)F)C(=O)CCN1CCN(c2ccc(C#N)cn2)CC1` [Example 138, 3-[4-(5-cyanopyridin-2-yl)piperazin-1-yl]-N-methyl-N-[[(2S)-1-[6-oxo-5-(trifluoromethyl)-1,6-dihydropyridazin-4-yl]pyrrolidin-2-yl]methyl]propanamide] came in with a 50% inhibitory concentration (IC50) of no less than 1000 nM.

Compound `COCC1C[C@@H](COCCC(=O)N2CCN(c3ccc(C#N)cn3)CC2)N(c2cn[nH]c(=O)c2C(F)(F)F)C1` (stereo partly drawn) [Example 139, 6-[4-(3-[[(2S)-4-(methoxymethyl)-1-[6-oxo-5-(trifluoromethyl)-1,6-dihydropyridazin-4-yl]pyrrolidin-2-yl]methoxy]propanoyl)piperazin-1-yl]pyridine-3-carbonitrile] came in with an IC50 of less than 100 nM.

With `C[C@@H](OCCC(=O)N1CCN(c2ccc(C#N)cn2)CC1)[C@@H]1CCCN1c1cn[nH]c(=O)c1C(F)(F)F` [Example 140A, 6-(4-[3-[(1R)-1-[(2S)-1-[6-oxo-5-(trifluoromethyl)-1,6-dihydropyridazin-4-yl]pyrrolidin-2-yl]ethoxy]propanoyl]piperazin-1-yl)pyridine-3-carbonitrile], the IC50 was less than 100 nM.

In turn, `C[C@H](OCCC(=O)N1CCN(c2ccc(C#N)cn2)CC1)[C@@H]1CCCN1c1cn[nH]c(=O)c1C(F)(F)F` [Example 140B, 6-(4-[3-[(1S)-1-[(2S)-1-[6-oxo-5-(trifluoromethyl)-1,6-dihydropyridazin-4-yl]pyrrolidin-2-yl]ethoxy]propanoyl]piperazin-1-yl)pyridine-3-carbonitrile] gave an IC50 of 100 to 1000 nM.

For the compound `N#Cc1ccc(N2CCN(C(=O)C[C@@H]3CC[C@@H]([C@@H]4CCCN4c4cn[nH]c(=O)c4C(F)(F)F)O3)CC2)nc1` [Example 141A, 6-(4-[2-[(2S,5S)-5-[(2S)-1-[6-oxo-5-(trifluoromethyl)-1,6-dihydropyridazin-4-yl]pyrrolidin-2-yl]oxolan-2-yl]acetyl]piperazin-1-yl)pyridine-3-carbonitrile], the half-maximal inhibitory concentration (IC50) was less than 100 nM.

As to `N#Cc1ccc(N2CCN(C(=O)C[C@@H]3CC[C@H]([C@@H]4CCCN4c4cn[nH]c(=O)c4C(F)(F)F)O3)CC2)nc1` [Example 141C, 6-(4-[2-[(2S,5R)-5-[(2S)-1-[6-oxo-5-(trifluoromethyl)-1,6-dihydropyridazin-4-yl]pyrrolidin-2-yl]oxolan-2-yl]acetyl]piperazin-1-yl)pyridine-3-carbonitrile], the IC50 fell in the range of 100 to 1000 nM.

For the compound `N#Cc1ccc(N2CCN(C(=O)C[C@H]3CC[C@H]([C@@H]4CCCN4c4cn[nH]c(=O)c4C(F)(F)F)O3)CC2)nc1` [Example 141D, 6-(4-[2-[(2R,5R)-5-[(2S)-1-[6-oxo-5-(trifluoromethyl)-1,6-dihydropyridazin-4-yl]pyrrolidin-2-yl]oxolan-2-yl]acetyl]piperazin-1-yl)pyridine-3-carbonitrile], the IC50 lay within 100 to 1000 nM.

`CC(=O)N1CCC[C@@H]2CN(c3cn[nH]c(=O)c3C(F)(F)F)C[C@@H]21` [Example 142, 5-[(4aR,7aR)-1-acetyl-octahydro-1H-pyrrolo[3,4-b]pyridin-6-yl]-4-(trifluoromethyl)-2,3-dihydropyridazin-3-one]: the half-inhibitory concentration (IC50) is no less than 1000 nM.

Compound `CC(=O)N1CCC[C@H]2CN(c3cn[nH]c(=O)c3C(F)(F)F)C[C@H]21` [Example 143, 5-[(4aS,7aS)-1-acetyl-octahydro-1H-pyrrolo[3,4-b]pyridin-6-yl]-4-(trifluoromethyl)-2,3-dihydropyridazin-3-one] displayed an IC50 of no less than 1000 nM.

With `N#Cc1ccc(N2CCN(C(=O)CNCC[C@@H]3c4ccccc4CN3c3cn[nH]c(=O)c3C(F)(F)F)CC2)nc1` [Example 144A, 6-[4-[2-([2-[(1R)-2-[6-oxo-5-(trifluoromethyl)-1,6-dihydropyridazin-4-yl]-2,3-dihydro-1H-isoindol-1-yl]ethyl]amino)acetyl]piperazin-1-yl]pyridine-3-carbonitrile], the half-inhibitory concentration (IC50) is less than 100 nM.

In turn, `N#Cc1ccc(N2CCN(C(=O)CNCC[C@H]3c4ccccc4CN3c3cn[nH]c(=O)c3C(F)(F)F)CC2)nc1` [Example 144B, 6-[4-[2-([2-[(1S)-2-[6-oxo-5-(trifluoromethyl)-1,6-dihydropyridazin-4-yl]-2,3-dihydro-1H-isoindol-1-yl]ethyl]amino)acetyl]piperazin-1-yl]pyridine-3-carbonitrile] registered an IC50 of 100 to 1000 nM.

For `N#Cc1ccc(N2CCN(C(=O)C[C@@H](N)COC[C@@H]3CCCN3c3cn[nH]c(=O)c3C(F)(F)F)CC2)nc1` [Example 145A, 6-[4-[(3R)-3-amino-4-[[(2S)-1-[6-oxo-5-(trifluoromethyl)-1,6-dihydropyridazin-4-yl]pyrrolidin-2-yl]methoxy]butanoyl]piperazin-1-yl]pyridine-3-carbonitrile; formic acid], the half-inhibitory concentration (IC50) was less than 100 nM.

Compound `N#Cc1ccc(N2CCN(C(=O)C[C@H](N)COC[C@@H]3CCCN3c3cn[nH]c(=O)c3C(F)(F)F)CC2)nc1` [Example 145B, 6-[4-[(3S)-3-amino-4-[[(2S)-1-[6-oxo-5-(trifluoromethyl)-1,6-dihydropyridazin-4-yl]pyrrolidin-2-yl]methoxy]butanoyl]piperazin-1-yl]pyridine-3-carbonitrile; formic acid] gave a half-inhibitory concentration (IC50) of less than 100 nM.
